Experimental data reported in patent US8080657B2, “Compounds of reverse turn mimetics and the use thereof” (Choongwae Pharma Corporation, priority 2008, dated 2011).

The compounds below were run against T1, cDNA-expressed human hepatic CYP3A4 (Homo sapiens, UniProt P08684) (assay: P450 CYP3A4 inhibitory activity screening (BFC substrate, fluorescence)). Conditions: P450 CYP3A4 inhibitory activity screening, fluorescent assay; read-out: CYP3A4 inhibition, IC50 (μM) fluorescent assay.
T1 construct: purchased BD Gentest 456202
Type: biochemical
Method: P450 CYP3A4 Inhibitory Activity Screening
Assay was conducted in a 200 μL volume in 96-well microtiter plates using cDNA-expressed human hepatic CYP3A4 (supersome, BD Gentest™ #456202). 7-Benzyloxy-4-trifluoromethyl-coumarin (BFC) was used as a substrate for CYP3A4. Test articles and substrate BFC were dissolved in 100% acetonitrile. The final volume of acetonitrile in the incubation mixture was less than 1% (volume/volume). Potassium phosphate buffer (pH 7.4, final concentration 0.1 M), MgCl2 (final concentration 8.3 mM), EDTA (final concentration 1.67 mM), a test article stock solution, a CYP3A4 supersome and NADPH (final concentration 0.25 mM) were added to each well. The reaction was initiated by the addition of substrate (BFC, final concentration 30 µM) after a 10 min pre-incubation at 37° C. After 10 min incubation at 37° C., the reaction was terminated by the addition of 75 μL of acetonitrile:0.5 M Tris-base=4:1 (volume/volume). Thereafter, Fluorescent signal was measured using a fluorometer. BFC metabolite, 7-hydroxy-4-trifluoromethyl-coumarin, was measured using an excitation wavelength of 409 nm and an emission wavelength of 530 nm.

T1 sequence (P08684 whole entry): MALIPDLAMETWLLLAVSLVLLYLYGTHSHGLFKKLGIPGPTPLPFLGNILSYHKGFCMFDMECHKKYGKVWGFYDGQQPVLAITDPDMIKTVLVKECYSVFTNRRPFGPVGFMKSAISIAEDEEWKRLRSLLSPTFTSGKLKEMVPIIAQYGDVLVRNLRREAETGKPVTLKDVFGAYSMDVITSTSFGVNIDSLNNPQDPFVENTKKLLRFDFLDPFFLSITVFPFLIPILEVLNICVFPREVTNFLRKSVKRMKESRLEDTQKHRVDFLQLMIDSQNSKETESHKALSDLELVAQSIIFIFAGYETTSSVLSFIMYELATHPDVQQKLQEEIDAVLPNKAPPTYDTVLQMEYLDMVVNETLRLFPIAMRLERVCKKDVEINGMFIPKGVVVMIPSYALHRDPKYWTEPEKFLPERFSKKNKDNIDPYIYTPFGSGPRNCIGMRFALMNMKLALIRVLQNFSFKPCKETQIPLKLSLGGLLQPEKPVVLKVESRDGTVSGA

First: C=CCN1CC(=O)N2[C@@H](Cc3ccc(O)cc3)C(=O)N(Cc3cccc(-c4cccc(C(=O)O)c4)c3)C[C@@H]2N1C(=O)NCc1ccccc1 [compound 24]
Second: C=CCN1CC(=O)N2[C@@H](Cc3ccc(O)cc3)C(=O)N(Cc3cccc(C(=O)O)c3)C[C@@H]2N1C(=O)NCc1ccccc1 [compound 54]
The IC50 of the first is lower: 12.9 µM for the first, greater than 50 µM for the second. The first is the more potent here.

Going from `C=CCN1CC(=O)N2[C@@H](Cc3ccc(O)cc3)C(=O)N(Cc3cccc(N(C)C=O)c3)C[C@@H]2N1C(=O)NCc1ccccc1` [compound 2] to `C=CCN1CC(=O)N2[C@@H](Cc3ccc(O)cc3)C(=O)N(Cc3cccc(N(C)C(=O)OC)c3)C[C@@H]2N1C(=O)NCc1ccccc1` [compound 21], the IC50 rises from 5.23 µM to 10.2 µM (2-fold).

`C=CCN1CC(=O)N2[C@@H](Cc3ccc(O)cc3)C(=O)N(Cc3cccc(C#N)c3)C[C@@H]2N1C(=O)NCc1ccccc1` [compound 19] and `C=CCN1CC(=O)N2[C@@H](Cc3ccc(O)cc3)C(=O)N(Cc3cccc(C(C)=O)c3)C[C@@H]2N1C(=O)NCc1ccccc1` [compound 15] are within 1.5-fold of each other in IC50: 9.65 µM for the first, 8.79 µM for the second.

Compared with `C=CCN1CC(=O)N2[C@@H](Cc3ccc(O)cc3)C(=O)N(Cc3cccc(C(N)=O)n3)C[C@@H]2N1C(=O)NCc1ccccc1` [compound 52], `C=CCN1CC(=O)N2[C@@H](Cc3ccc(O)cc3)C(=O)N(Cc3cccc(C(=O)NC)n3)C[C@@H]2N1C(=O)NCc1ccccc1` [compound 25] is lower in IC50: greater than 50 µM for the first, 13.1 µM for the second.

First: C=CCN1CC(=O)N2[C@@H](Cc3ccc(O)cc3)C(=O)N(Cc3cccnc3Br)C[C@@H]2N1C(=O)NCc1ccccc1 [compound 3]
Second: C=CCN1CC(=O)N2[C@@H](Cc3ccc(O)cc3)C(=O)N(Cc3ccnc(C(N)=O)c3)C[C@@H]2N1C(=O)NCc1ccccc1 [compound 44]
The IC50 of the first is 8.5-fold lower: 5.33 µM for the first, 45.1 µM for the second.

Compared with `C=CCN1CC(=O)N2[C@@H](Cc3ccc(O)cc3)C(=O)N(Cc3ccccc3-n3cnnn3)C[C@@H]2N1C(=O)NCc1ccccc1` [compound 26], `C=CCN1CC(=O)N2[C@@H](Cc3ccc(O)cc3)C(=O)N(Cc3cccc4c3ncn4CCC)C[C@@H]2N1C(=O)NCc1ccccc1` [compound 14] is 1.6-fold lower in IC50: 13.5 µM for the first, 8.42 µM for the second.

First: C=CCN1CC(=O)N2[C@@H](Cc3ccc(OS(N)(=O)=O)cc3)C(=O)N(Cc3cccc4c3ncn4C)C[C@@H]2N1C(=O)NCc1ccccn1 [compound 23]
Second: C=CCN1CC(=O)N2[C@@H](Cc3ccc(O)cc3)C(=O)N(Cc3cccc4c3ncn4C)C[C@@H]2N1C(=O)NCc1ccccn1 [compound 47]
The IC50 of the first is lower: 12 µM for the first, greater than 50 µM for the second.

Compared with `C=CCN1CC(=O)N2[C@@H](Cc3ccc(O)cc3)C(=O)N(Cc3cccc(C(=O)N4CCCC4)c3)C[C@@H]2N1C(=O)NCc1ccccc1` [compound 1], `C=CCN1CC(=O)N2[C@@H](Cc3ccc(O)cc3)C(=O)N(Cc3cccc(C(N)=O)c3)C[C@@H]2N1C(=O)NCc1ccccc1` [compound 53] is higher in IC50: 5 µM for the first, greater than 50 µM for the second.

Going from `C=CCN1CC(=O)N2[C@@H](Cc3ccc(O)cc3)C(=O)N(Cc3cccc(C(=O)OC)c3)C[C@@H]2N1C(=O)NCc1ccccc1` [compound 11] to `C=CCN1CC(=O)N2[C@@H](Cc3ccc(O)cc3)C(=O)N(Cc3cccc(C(=O)NOC)c3)C[C@@H]2N1C(=O)NCc1ccccc1` [compound 41], the IC50 rises from 7.58 µM to 41.4 µM (5.5-fold). The first is the more potent here.

Compared with `C=CCN1CC(=O)N2[C@@H](Cc3ccc(O)cc3)C(=O)N(Cc3cccc(C(=O)N(C)C)n3)C[C@@H]2N1C(=O)NCc1ccccc1` [compound 39], `C=CCN1CC(=O)N2[C@@H](Cc3ccc(O)cc3)C(=O)N(Cc3cccc(C(=O)OCC)n3)C[C@@H]2N1C(=O)NCc1ccccc1` [compound 31] is 1.9-fold lower in IC50: 35.3 µM for the first, 18.9 µM for the second. The second is the more potent here.

Going from `C=CCN1CC(=O)N2[C@@H](Cc3ccc(OS(N)(=O)=O)cc3)C(=O)N(Cc3cccc(N4CCCC4=O)c3)C[C@@H]2N1C(=O)NCc1ccccc1` [compound 16] to `C=CCN1CC(=O)N2[C@@H](Cc3ccc(OS(N)(=O)=O)cc3)C(=O)N(Cc3cccc(C(=O)O)c3)C[C@@H]2N1C(=O)NCc1ccccc1` [compound 55], the IC50 rises from 9 µM to greater than 50 µM.

Going from `C=CCN1CC(=O)N2[C@@H](Cc3ccc(O)cc3)C(=O)N(Cc3cccc4c3nc(C(F)(F)F)n4C)C[C@@H]2N1C(=O)NCc1ccccc1` [compound 45] to `C=CCN1CC(=O)N2[C@@H](Cc3ccc(O)cc3)C(=O)N(Cc3cccc4c3ncn4CC#N)C[C@@H]2N1C(=O)NCc1ccccc1` [compound 4], the IC50 falls from greater than 10 µM to 5.4 µM. The second is the more potent here.

First: C=CCN1CC(=O)N2[C@@H](Cc3ccc(O)cc3)C(=O)N(Cc3cccc(NC(=O)NC(N)=O)c3)C[C@@H]2N1C(=O)NCc1ccccc1 [compound 27]
Second: C=CCN1CC(=O)N2[C@@H](Cc3ccc(O)cc3)C(=O)N(Cc3cccc(NC(N)=O)c3)C[C@@H]2N1C(=O)NCc1ccccc1 [compound 37]
The IC50 of the first is 2-fold lower: 16.8 µM for the first, 34.3 µM for the second.

First: C=CCN1CC(=O)N2[C@@H](Cc3ccc(O)cc3)C(=O)N(Cc3cccc(N4CCCC4=O)c3)C[C@@H]2N1C(=O)NCc1ccccn1 [compound 46]
Second: C=CCN1CC(=O)N2[C@@H](Cc3ccc(O)cc3)C(=O)N(Cc3cccc(C(=O)N(C)C)c3)C[C@@H]2N1C(=O)NCc1ccccc1 [compound 22]
The IC50 of the first is higher: greater than 50 µM for the first, 11.6 µM for the second.

`C#CCN1C[C@H]2N(C(=O)CN(CC=C)N2C(=O)NCc2ccccc2)[C@@H](Cc2ccc(O)cc2)C1=O` [compound 29] and `C=CCN1CC(=O)N2[C@@H](Cc3ccc(O)cc3)C(=O)N(Cc3cccc(NC(=O)OC)c3)C[C@@H]2N1C(=O)NCc1ccccc1` [compound 33] are within 1.5-fold of each other in IC50: 18.1 µM for the first, 24.2 µM for the second.

Going from `C=CCN1CC(=O)N2[C@@H](Cc3ccc(O)cc3)C(=O)N(Cc3cccc(C(=O)NCCO)c3)C[C@@H]2N1C(=O)NCc1ccccc1` [compound 42] to `C=CCN1CC(=O)N2[C@@H](Cc3ccc(O)cc3)C(=O)N(Cc3cccc(C(=O)NCC4CCCO4)c3)C[C@@H]2N1C(=O)NCc1ccccc1` (stereo partly drawn) [compound 17], the IC50 falls from 44.1 µM to 9.02 µM (4.9-fold).

`O=C(O)c1cccc(CN2C[C@H]3N(C(=O)CN(Cc4ccccc4)N3C(=O)NCc3ccccc3)[C@@H](Cc3ccc(O)cc3)C2=O)c1` [compound 49] and `C=CCN1CC(=O)N2[C@@H](Cc3ccccc3)C(=O)N(Cc3cccc(C(=O)O)c3)C[C@@H]2N1C(=O)NCc1ccccc1` [compound 48] cannot be ordered by IC50: greater than 50 µM for the first, greater than 50 µM for the second.

Going from `C=CCN1CC(=O)N2[C@@H](Cc3ccc(O)cc3)C(=O)N(Cc3ccc(CP(=O)(O)O)cc3)C[C@@H]2N1C(=O)NCc1ccccc1` [compound 57] to `C=CCN1CC(=O)N2[C@@H](Cc3ccc(O)cc3)C(=O)N(Cc3cccc(NS(C)(=O)=O)c3)C[C@@H]2N1C(=O)NCc1ccccc1` [compound 18], the IC50 falls from greater than 50 µM to 9.16 µM. The second is the more potent here.

Compared with `CN1CC(=O)N2[C@@H](Cc3ccc(O)cc3)C(=O)N(Cc3cccc4c3ncn4C)C[C@@H]2N1C(=O)NCc1ccccc1` [compound 40], `C=CCN1CC(=O)N2[C@@H](Cc3ccc(O)cc3)C(=O)N(Cc3cccc4c3ncn4CC(N)=O)C[C@@H]2N1C(=O)NCc1ccccc1` [compound 58] is higher in IC50: 39.1 µM for the first, greater than 50 µM for the second.

Compared with `C=CCN1CC(=O)N2[C@@H](Cc3ccc(O)cc3)C(=O)N(Cc3cccc(C(=O)NCCOC)n3)C[C@@H]2N1C(=O)NCc1ccccc1` [compound 32], `C=CCN1CC(=O)N2[C@@H](Cc3ccc(O)cc3)C(=O)N(Cc3cccc(C(=O)N[C@@H](CCC(=O)O)C(=O)O)c3)C[C@@H]2N1C(=O)NCc1ccccc1` [compound 51] is higher in IC50: 19.9 µM for the first, greater than 50 µM for the second. The first is the more potent here.

`C=CCN1CC(=O)N2C(Cc3ccc(O)cc3)C(=O)N(Cc3cccc4c(-c5ccccc5)cn(S(=O)(=O)c5ccccc5)c34)C[C@@H]2N1C(=O)NCc1ccccc1` (stereo partly drawn) [compound 59] gave an IC50 of 2.63 µM.

Same assay, conditions: human CYP3A4 supersome, substrate BFC, 10 min incubation at 37° C.; read-out: IC50 values of Compounds against CYP3A4 activity

First: C=CCN1CC(=O)N2[C@@H](Cc3ccc(O)cc3)C(=O)N(Cc3cccc(NC(=O)OC)c3)C[C@@H]2N1C(=O)NCc1ccccc1 (single isomer, unassigned) [C]
Second: C=CCN1CC(=O)N2[C@@H](Cc3ccc(O)cc3)C(=O)N(Cc3cccc(N(C)C(=O)OC)c3)C[C@@H]2N1C(=O)NCc1ccccc1 [D]
The IC50 of the first is 2.4-fold higher: 24.2 µM for the first, 10.2 µM for the second. The second is the more potent here.

`C=CCN1CC(=O)N2[C@@H](Cc3ccc(O)cc3)C(=O)N(Cc3cccc(C(=O)NC)n3)C[C@@H]2N1C(=O)NCc1ccccc1` [A] and `C=CCN1CC(=O)N2[C@@H](Cc3ccc(O)cc3)C(=O)N(Cc3cccc4c3nc(C(F)(F)F)n4C)C[C@@H]2N1C(=O)NCc1ccccc1` [E] cannot be ordered by IC50: 13.1 µM for the first, greater than 10 µM for the second.
